# Measured values from patent US5874455A, “Method for treatment of cataract with radical scavenger” (priority 1993, dated 1999).
# Like-named read-outs stand apart in the source and are kept apart here.
# Experiments:
# [1] = test system: Diamide-Treated Mice Lenses; assay: Na+/K+ ratio and Ca2+ contents in diamide-treated mice lenses; assay type: cell-based, mouse (ddY); conditions: for Ca2+ content (in words) / Na+/K+ ratio (in words): 1 Mm (so in the source), vs control levels; for Ca2+ content / K+ content / Na+ content / Na/K ratio: diamide-treated lenses, 1 mM agent
# Description: Male ddY mice, 6 weeks old, were killed by decapitation, and the […] were excised. The lenses were removed by a posterior approach and then transferred on a nylon net to a petri dish containing D-MEM medium (low glucose). The lenses were incubated at 37° C. for 19-20 hr in CO2 incubator under 5% CO2 -air and clear transparent lenses were collected to be used for following experiments. The lenses were incubated at 37° C. for 1.5 hr in 3 ml of isotonic HEPES buffer (10 mM HEPES, 136.2 mM NaCl, 5.3 mM KCl, 1.0 mM K2 HPO4, 1.7 mM CaC2 .cndot.2H2 O, 5.5 mM glucose pH 7.4) containing 1 mM diamide and the HEPES buffer without glucose. Those were transferred to an incubation test tube containing 3 ml of isotonic HEPES buffer (pH 7.4) with 1 mM DDC or GE. The diamide treated and non-treated controls were treated by the 5 hr-incubation without the above agents. The wet weight of these treated lenses were determined. Lenses were dried in vacuo at 100° C. for 8 hr, and then digested in 60% nitric acid (100 μl/lens) at 80° C. to degrade organic substances. One milliliter of purified water was added to the digests, and centrifuged at 3000×g for 10 min. Two tenth ml of the supernatant was mixed with 2 ml of purified water, and was used for measurement of Na^+ and K^+. One tenth milliliter of 100 μg/ml lanthanum chloride was added to the residual supernatant and used for measurement of Ca^2+, Na^+,K^+ and Ca^2+ contents in the lenses were determined by atomic absorption spectrometer (Hitachi 180-80, Tokyo, Japan).
# [2] = biological target: Aldose Reductase from Rat Crystalline Lens (Rattus norvegicus, UniProt P07943); assay: biochemical; assay type: biochemical
# Description: Aldose reductase was prepared from rat lenses in the following manner. Lenses (20 to 30) were homogenized in 20 volumes of 5 mM sodium phosphate buffer (pH 7.4), followed by centrifugation at 18,000×g for 5 min to remove insoluble materials. Solid ammonium sulfate was added to the supernatant fluid to 30% saturation. The suspension was centrifuged at 18,000×g for 10 min and the supernatant was recovered. Aldose reductase was precipitated from 30% saturated solution by the addition of solid ammonium sulfate to 75% saturation, and obtained by centrifugation. The precipitate was collected and suspended in 3.2M ammonium sulfate.
# The enzyme solution was assayed by following the absorbance at 340 nm on a Shimadzu UV-2000 spectrophotometer equipped with a temperature-controlled cuvette chamber. The solution (0.1 ml) was added to a cuvette containing phosphate buffer (1.6 ml, pH 6.2, 0.1M final concentration) and NADPH (0.1 ml, 0.25 mM final concentration), and the cuvette was inserted into the spectrophotometer. The reaction was started by the addition of DL-glyceraldehyde (0.1 ml, 50 mM final concentration) to the cuvette, and the decrease of absorbance at 340 nm for 5 min at 25° C. was measured. […] Agents to be tested were dissolved with a minimal amount of dimethylsulfoxide and diluted to the desired concentration with purified water. The resulting solution (0.1 ml) was added to the cuvette. The reference blank (to correct for non-specific oxidation of NADPH and absorption of the agents) was prepared by using water instead of DL-glyceraldehyde solution.
# rabbit cornea = assay: In vitro transcorneal penetration of DDC from liposomes; assay type: in vitro ADME
# Description: Male rabbit, 2.0 kg of body weight was sacrificed by a injection of lethal dose of pentobarbital into a […] and then two eyeballs were removed from […]. The cornea was set to the cell in which donor side was filled with liposomes containing DSF and in reservoir side with 10 mM HEPES buffer (pH 7.4) containing 136 mM NaCl, 5.3 mM KCl, 1.0 mM K2 HPO4, 1.7 mM CaCl2 and 5.5 mM glucose, shown in FIG. 2. The penetration was carried out at 37° C. for 0-6 hr. The sample (50 μl) was withdrawn from reservoir side at the indicated times. DDC in the sample was determined by the HPLC method (FIG. 2).
# [3] = test system: Diamide-Treatment Mice Lenses; assay: GSH content in diamide-treated mice lenses; assay type: cell-based, mouse (ddY); conditions: for GSH content: 1 mM diamide
# Description: Male ddY mice, 6 weeks old, were killed by decapitation, and the globes were excised. The lenses were removed by a posterior approach and then transferred on a nylon net to an petri containing D-MEM medium (low glucose). The lenses were incubated at 37 ° C. for […] and clear transparent lenses were collected to be used for following experiments. […] Those were transferred to an incubation test tube containing 3 ml of isotonic HEPES buffer (pH 7.4) containing 5.5 mM glucose with 1 mM DDC or GE (glutathione isopropyl ester). The diamide treated and non-treated controls were treated by the 5 hr--incubation without the above agents. The wet weight of these treated lenses were determined.
# The treated lenses were homogenized with 0.5 ml of purified water by Teflon homogenizer. GSH in the homogenate was determined by the method of Beutler using DTNB and the HPLC method followed.
# Fifty microliter of the lens homogenate were added into 100 μl of acetonitrile containing 100 μg of sodium pantothenate (internal standard) and centrifuged at 12,000 rpm for 10 min. The supernatant solution (10 μl) was injected into a HPLC apparatus, Shimadzu LC-10AD equipped with a column oven, CTO-6A and the chromatography were performed under the conditions: a column of Supersphere 100RP-18 (particle size: 4 μm, column size: 4.0×250 mm), mobile phase of 5% methanol containing 1.0% TFA, flow rate of 1 ml/min, and column temperature at 35° C.
# [4] = pH 6.2, 25° C., DL-glyceraldehyde substrate, read-out: IC50
compound,measurement,setting,value
O[C@H](CS)[C@H](O)CS (relative stereo) [DTT],Ca2+ content (in words),[1],restored completely
same,Na+/K+ ratio (in words),[1],restored completely
"CC(=C(CCO)SSCC1CCCO1)N(C=O)Cc1cnc(C)nc1N (stereo in doubt) [Frusultiamine (Alinamine F), Frusultiamine]",IC50,[2]; [4],1000 µM
"CO[C@@]1(NC(=O)CSCC#N)C(=O)N2C(C(=O)O)=C(CSc3nnnn3C)CS[C@@H]21 [CMZ, cefmetazole]",Ca2+ content (in words),[1],restored completely
same,Na+/K+ ratio (in words),[1],restored completely
same,Ca2+ content,[1],1.11 ± 0.36 mmol/kg of H2 O
same,K+ content,[1],84.91 ± 10.06 mmol/kg of H2 O
same,Na+ content,[1],40.59 ± 10.16 mmol/kg of H2 O
same,Na/K ratio,[1],0.50 ± 0.19
same,inhibitory activity against rat lens aldose reductase (in words),[2],lower inhibitory activities
same,IC50,[2]; [4],450 µM
"CCN(CC)C(=S)S [DDC, Diethyldithiocarbamate]",DDC content in the reservoir solution relative to that at pH 8.0,"rabbit cornea; pH 6.5, six hours after incubation",one third
same,effect of BSA on DDC penetration (in words),"rabbit cornea; pH 8.0, 1.75% BSA in donor solution",did not affect
"CCN(CC)C(=S)[S-].[Na+] [DDC-Na, Sodium diethyldithiocarbamate]",GSH content,"[3]; DTNB method, 1 mM agent",9.8 μg/lens
same,GSH content,"[3]; HPLC method, 1 mM agent",3.9 μg/lens
same,Ca2+ content,[1],1.09 ± 0.33 mmol/kg of H2 O
same,K+ content,[1],86.25 ± 4.02 mmol/kg of H2 O
same,Na+ content,[1],36.56 ± 4.38 mmol/kg of H2 O
same,Na/K ratio,[1],0.43 ± 0.07
same,IC50,[2],2600 µM
"CCN(CC)C(=S)SSC(=S)N(CC)CC [DSF, tetraethylthiuram disulfide]",inhibitory activity against rat lens aldose reductase (in words),[2],lower inhibitory activities
same,IC50,[2]; [4],120 µM
"CC(C)OC(=O)CNC(=O)[C@H](CS)NC(=O)CC[C@H](N)C(=O)O [GE, Glutathione isopropyl ester]",total GSH in diamide-treated lenses (in words),"[3]; DTNB method, 1 mM agent",restored by the control GSH level
same,GSH content,"[3]; DTNB method, 1 mM agent",10.3 μg/lens
same,restoring of GSH (in words),[3]; HPLC method,restoring of GSH
same,GSH content,"[3]; HPLC method, 1 mM agent",4.0 μg/lens
same,Ca2+ content (in words),[1],restored completely
same,Na+/K+ ratio (in words),[1],restored completely
same,Ca2+ content,[1],1.39 ± 0.30 mmol/kg of H2 O
same,K+ content,[1],79.67 ± 8.63 mmol/kg of H2 O
same,Na+ content,[1],51.60 ± 9.57 mmol/kg of H2 O
same,Na/K ratio,[1],0.67 ± 0.20
same,inhibitory activity against rat lens aldose reductase (in words),[2],lower inhibitory activities
same,IC50,[2]; [4],760 µM
"N[C@@H](CCC(=O)N[C@@H](CS)C(=O)NCC(=O)O)C(=O)O [Glutathione (GSH), Glutathione]",IC50,[2]; [4],1550 µM
"O=C(O)c1cc(O)c2c3nc4ccccc4oc-3cc(=O)c2n1 [Pirenoxine (Catalin), Pirenoxine]",inhibitory activity against rat lens aldose reductase (in words),[2],lower inhibitory activities
same,IC50,[2]; [4],17.5 µM
C[C@@H]1O[C@@H](Oc2c(-c3ccc(O)c(O)c3)oc3cc(O)cc(O)c3c2=O)[C@H](O)[C@H](O)[C@H]1O [Quercitrin],IC50,[2],0.26 µM
same,inhibitory activity against rat lens aldose reductase (in words),[2],lower inhibitory activities
CC(S)C(=O)NCC(=O)O (stereo not shown) [Tiopronin],IC50,[2]; [4],1350 µM
